pIC50: −log10 of the molar value. The source made the active and inactive calls. The rule behind the calls is not given here.
How the values were obtained:
Plasmodium berghei [1] = experiment: Antimalarial activity against Plasmodium berghei ANKA expressing GFP infected in mouse assessed as mean survival days at 30 mg/kg, po administered QD for 3 days (reference value: 6 to 7 days); type: functional
Salmonella typhimurium [2] = experiment: Mutagenicity against Salmonella typhimurium TA98 assessed as revertants at 3 uM incubated for 90 mins followed by drug washout measured after 2 days relative to positive control; type: toxicity, organism-based; details: salmonella enterica subsp. enterica serovar typhimurium, 1.5 h
Plasmodium berghei [3] = experiment: Antimalarial activity against Plasmodium berghei ANKA expressing GFP infected in mouse assessed as mean survival days at 30 mg/kg, po administered at 6,[…],[…] and 72 hrs post-infection (reference value: 6 to 7 days); type: functional
Plasmodium berghei [4] = experiment: Antimalarial activity against Plasmodium berghei ANKA expressing GFP infected in mouse assessed as mean survival days at 100 mg/kg, po administered 24 hrs post-infection (reference value: 6 to 7 days); type: functional
Plasmodium berghei [5] = experiment: Antimalarial activity against Plasmodium berghei ANKA expressing GFP infected in mouse assessed as cure from infection at 50 mg/kg, po administered QD for 3 days measured on day 30; type: functional, organism-based; set-up: dose 50 mg/kg
Heart [6] = experiment: Cardiotoxicity against Sprague-Dawley rat Langendorff perfused heart assessed as cycle length time at 10 uM by electrophysiological analysis (reference value: 258.62 8.87 ms); type: toxicity, tissue-based
Plasmodium berghei [7] = experiment: Antimalarial activity against Plasmodium berghei ANKA expressing GFP infected in mouse assessed as reduction in parasitemia at 30 mg/kg, po administered QD for 3 days measured 24 hrs post-final dosing by flow cytometric analysis; type: functional; set-up: scale not given: the % may be the effect or the level left
Heart [8] = experiment: Cardiotoxicity against Sprague-Dawley rat Langendorff perfused heart assessed as atrioventricular conduction time at 10 uM by electrophysiological analysis (reference value: 42.67 2.29 ms); type: toxicity, tissue-based
Salmonella typhimurium [9] = experiment: Mutagenicity against Salmonella typhimurium TA100 assessed as revertants at 24 uM incubated for 90 mins followed by drug washout measured after 2 days relative to positive control; type: toxicity, organism-based; details: salmonella enterica subsp. enterica serovar typhimurium
Heart [10] = experiment: Cardiotoxicity against Sprague-Dawley rat Langendorff perfused heart assessed as intraventricular conduction time at 1 uM by electrophysiological analysis (reference value: 13.92 0.42 ms); type: toxicity, tissue-based
Plasmodium berghei [11] = experiment: Antimalarial activity against Plasmodium berghei ANKA expressing GFP infected in mouse assessed as reduction in parasitemia at 100 mg/kg, po administered 24 hrs post-infection measured 48 hrs post-dosing by flow cytometric analysis; type: functional; set-up: scale not given: the % may be the effect or the level left
Heart [12] = experiment: Cardiotoxicity against Sprague-Dawley rat Langendorff perfused heart assessed as heart rate at 0.1 uM by electrophysiological analysis (reference value: 236.68 7.83 bpm); type: toxicity, tissue-based
Salmonella typhimurium [13] = experiment: Mutagenicity against Salmonella typhimurium TA100 assessed as revertants at 1.5 uM incubated for 90 mins followed by drug washout measured after 2 days relative to positive control; type: toxicity, organism-based; details: salmonella enterica subsp. enterica serovar typhimurium, 1.5 h
[14] = target: Chloroquine resistance transporter (Plasmodium falciparum, UniProt Q9N623); experiment: Inhibition of chloroquine-resistant Plasmodium falciparum Dd2 CRT expressed in Xenopus laevis oocyte assessed as inhibition of [3H]chloroquine uptake measured from 1 to 2 hrs
Plasmodium berghei [15] = experiment: Antimalarial activity against Plasmodium berghei ANKA expressing GFP infected in mouse assessed as cure from infection at 30 mg/kg, po administered QD for 3 days measured on day 30; type: functional, organism-based; set-up: dose 30 mg/kg
Heart [16] = experiment: Cardiotoxicity against Sprague-Dawley rat Langendorff perfused heart assessed as QT time interval at 10 uM by electrophysiological analysis (reference value: 73.01 4.52 ms); type: toxicity, tissue-based
Liver = experiment: Drug uptake in CD1 albino mouse liver at 50 mg/kg, po at 6 to 48 hrs; type: ADME, organism-based; set-up: dose 50 mg/kg, route oral; details: in vivo
Salmonella typhimurium [17] = experiment: Mutagenicity against Salmonella typhimurium TA98 assessed as revertants at 48 uM incubated for 90 mins followed by drug washout measured after 2 days relative to positive control; type: toxicity, organism-based; details: salmonella enterica subsp. enterica serovar typhimurium, 1.5 h
Plasma = experiment: Drug uptake in CD1 albino mouse plasma at 50 mg/kg, po up to 48 hrs; type: ADME, organism-based; set-up: dose 50 mg/kg, route oral; details: in vivo
[18] = Elimination half life in CD1 albino mouse liver at 50 mg/kg, po; type: ADME, organism-based; set-up: dose 50 mg/kg, route oral; details: read-out: beta t1/2 (converted)
Plasmodium berghei [19] = experiment: Antimalarial activity against Plasmodium berghei ANKA expressing GFP infected in mouse assessed as reduction in parasitemia at 30 mg/kg, po administered 24 hrs post-infection measured 48 hrs post-dosing by flow cytometric analysis; type: functional; set-up: scale not given: the % may be the effect or the level left
[20] = Cytotoxicity against mouse NIH3T3 cells after 24 hrs by neutral red dye uptake assay; type: cell-based; details: read-out: TC50
Heart [21] = experiment: Cardiotoxicity against Sprague-Dawley rat Langendorff perfused heart assessed as PQ prolongation-induced atrioventricular block at 30 uM by electrophysiological analysis; type: toxicity, tissue-based
Heart [22] = experiment: Cardiotoxicity against Sprague-Dawley rat Langendorff perfused heart assessed as intraventricular conduction time at 10 uM by electrophysiological analysis (reference value: 13.92 0.42 ms); type: toxicity, tissue-based
Heart [23] = experiment: Cardiotoxicity against Sprague-Dawley rat Langendorff perfused heart assessed as atrioventricular conduction time at 30 uM by electrophysiological analysis (reference value: 42.67 2.29 ms); type: toxicity, tissue-based
Plasmodium berghei [24] = experiment: Antimalarial activity against Plasmodium berghei ANKA expressing GFP infected in mouse assessed as cure from infection at 100 mg/kg, po administered 24 hrs post-infection measured on day 30; type: functional, organism-based; set-up: dose 100 mg/kg
Heart [25] = experiment: Cardiotoxicity against Sprague-Dawley rat Langendorff perfused heart assessed as QT time interval at 1 uM by electrophysiological analysis (reference value: 73.01 4.52 ms); type: toxicity, tissue-based
Heart [26] = experiment: Cardiotoxicity against Sprague-Dawley rat Langendorff perfused heart assessed as atrioventricular conduction time at 1 uM by electrophysiological analysis (reference value: 42.67 2.29 ms); type: toxicity, tissue-based
Heart [27] = experiment: Cardiotoxicity against Sprague-Dawley rat Langendorff perfused heart assessed as cycle length time at 1 uM by electrophysiological analysis (reference value: 258.62 8.87 ms); type: toxicity, tissue-based
Heart [28] = experiment: Cardiotoxicity against Sprague-Dawley rat Langendorff perfused heart assessed as intraventricular conduction time at 0.1 uM by electrophysiological analysis (reference value: 13.92 0.42 ms); type: toxicity, tissue-based
Heart [29] = experiment: Cardiotoxicity against Sprague-Dawley rat Langendorff perfused heart assessed as QTc time interval at 1 uM by electrophysiological analysis (reference value: 145.78 10.53 ms); type: toxicity, tissue-based
Heart [30] = experiment: Cardiotoxicity against Sprague-Dawley rat Langendorff perfused heart assessed as QTc time interval at 10 uM by electrophysiological analysis (reference value: 145.78 10.53 ms); type: toxicity, tissue-based
[31] = Ratio of drug uptake in blood to plasma in CD1 albino mouse; type: ADME; details: whole blood and plasma
Heart [32] = experiment: Cardiotoxicity against Sprague-Dawley rat Langendorff perfused heart assessed as QTc time interval at 30 uM by electrophysiological analysis (reference value: 145.78 10.53 ms); type: toxicity, tissue-based
Salmonella typhimurium [33] = experiment: Mutagenicity against Salmonella typhimurium TA98 assessed as revertants at 1.5 uM incubated for 90 mins followed by drug washout measured after 2 days relative to positive control; type: toxicity, organism-based; details: salmonella enterica subsp. enterica serovar typhimurium, 1.5 h
Salmonella typhimurium [34] = experiment: Mutagenicity against Salmonella typhimurium TA98 assessed as revertants at 6 uM incubated for 90 mins followed by drug washout measured after 2 days relative to positive control; type: toxicity, organism-based; details: salmonella enterica subsp. enterica serovar typhimurium, 1.5 h
Plasmodium falciparum = experiment: Antiplasmodial activity against chloroquine-resistant Plasmodium falciparum K1 infected in human erythrocytes assessed as inhibition of [3H]hypoxanthine incorporation incubated for 48 hrs prior to [3H]hypoxanthine addition measured after 48 hrs by liquid scintillation counting; type: functional, organism-based

Sequence of Chloroquine resistance transporter (Q9N623 whole entry, looked up): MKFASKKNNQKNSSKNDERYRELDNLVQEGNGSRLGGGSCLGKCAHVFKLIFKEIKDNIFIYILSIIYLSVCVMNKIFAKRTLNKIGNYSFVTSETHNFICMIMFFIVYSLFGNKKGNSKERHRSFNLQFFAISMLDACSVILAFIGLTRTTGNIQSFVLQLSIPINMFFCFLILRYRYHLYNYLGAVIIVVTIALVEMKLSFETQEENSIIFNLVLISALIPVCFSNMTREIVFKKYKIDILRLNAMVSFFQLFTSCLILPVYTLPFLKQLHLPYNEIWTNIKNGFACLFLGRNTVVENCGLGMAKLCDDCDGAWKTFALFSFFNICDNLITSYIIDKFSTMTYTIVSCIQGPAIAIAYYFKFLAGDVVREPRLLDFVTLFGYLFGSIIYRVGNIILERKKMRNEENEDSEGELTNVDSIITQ

Clc1ccc(C(Nc2ccnc3cc(Cl)ccc23)c2ccc(CN3CCNCC3)cc2)cc1 (racemic)
MSD (Plasmodium berghei [1]): 29 days | Activity (Salmonella typhimurium [2]): 4% | MSD (Plasmodium berghei [3]): 30 days | MSD (Plasmodium berghei [4]): 28.8 days | Activity (Plasmodium berghei [5]): Active | Time (Heart [6]): 294 ms | Activity (Plasmodium berghei [7]): 99.8% | Time (Heart [8]): 50.56 ms | Activity (Salmonella typhimurium [9]): 27% | Time (Heart [10]): 14.18 ms | Activity (Plasmodium berghei [11]): 99.5% | Activity (Heart [12]): 235.08 bpm | Activity (Salmonella typhimurium [13]): 19% | pIC50 [14]: 4.99 | Activity (Plasmodium berghei [15]): inactive | Time (Heart [16]): 94.5 ms | Drug uptake (Liver): Not Active | Activity (Salmonella typhimurium [17]): 4% | Drug uptake (Plasma): Active | half-life [18]: 29 h | Activity (Plasmodium berghei [19]): 99.7% | CC50 at 24 h [20]: 1.8 µM | Activity (Heart [21]): Toxic | Time (Heart [22]): 17 ms | Time (Heart [23]): 75.67 ms | Activity (Plasmodium berghei [24]): inactive | Time (Heart [25]): 76.5 ms | Time (Heart [26]): 42.38 ms | Time (Heart [27]): 260.13 ms | Time (Heart [28]): 14 ms | Time (Heart [29]): 151.17 ms | Time (Heart [30]): 177.33 ms | blood plasma ratio [31]: 1.9 | Time (Heart [32]): 168.83 ms | Activity (Salmonella typhimurium [33]): 2% | Activity (Salmonella typhimurium [34]): 6% | pIC50 (Plasmodium falciparum): 7.66

Source: ChEMBL document CHEMBL2169878 (J Med Chem, 2012)
